The values below come from patent publication US20060166934A1, “Composition comprising phytosphingosine derivatives for apoptosis induction” (Tae-Yoon Kim, priority 2002, published 2006).

Data set [1] has as its system human umbilical vein endothelial cells (HUVEC). The experiment in a line: MTT assay, cytotoxicity in HUVEC. It is filed as cell-based. The method, then: (§1) Firstly, the cytotoxicity is measured by the MTT assay. Phytosphingosine (PS), phytosphingosine-HCl (PS-HCl), C6-phytosphingosine (C6-PS), CLA-phytosphingosine (CLA-PS), tetraacetyl phytosphingosine (TAPS), and N-acetyl phytosphingosine (NAPS) are dissolved into DMSO to have the final concentration of 1-100 μM.
(§2) In order to study the effects of the compositions of the present invention on the cytotoxicity in the human keratinocyte cell line HaCaT cells, the cell viability is analyzed by the MTT (3-[4,5-dimethylthiazol-2-yl]-2,5-diphenyltetrazolium bromide) assay. HaCaT cells are supplied by Professor N. Fuseng of German Cancer Research in Germany. HaCaT cells are seeded in a density of 1×10^6 cells in a […] and cultured in DMEM (Dulbecco's Modified Eagle Medium) containing 10% fetal bovine serum (FBS, GIBCO), 100 units/ml penicillin, and 100 μg/ml streptomycin for 48 hours. They are treated with trypsin and 1-2×10^4 cells per well are seeded again in a 96-well plate by using a serum-free culture medium, about 3 hours after which they are cultured by treatment with phytosphingosine derivatives. After they are cultured for 24 hours, the MTT reagent is added at a concentration of 2 mg/ml, cultured for 4 hours, suspended in DMSO after removing the culture medium completely in order to measure O.D. at 540 nm. C2-ceramide is used for comparison.
The MTT assay is used for the above purpose. Primary human umbilical vein endothelial cells are cultured from the human umbilical vein. The method of cell culture and the MTT assay are the same as those in the above. C2-ceramide is used for comparison.

Data set [2] concerns human keratinocyte cell line HaCaT cells. The experiment in a line: MTT assay, cytotoxicity in human keratinocyte cell line. In kind it is cell-based. The method, then:
as §1, §2
Background: Formazan colour is commonly taken as a measure of viable cells.

In the next data set the test system is caspase-3. The experiment in a line: Immunoblot analysis of active caspase-3. In kind it is cell-based, human. The following applies: HaCaT, FIG. 11. As for the experimental part: In the confirmation of apoptosis-related proteins, the immunoblot analysis is performed in order to look into the effects of the compositions of the present invention on the expression of caspase-3, p53, and Chk1 proteins related to the induction of apoptosis.
HaCaT cells are cultured on a 100-mm dish and collected at the indicative time. The proteins are extracted by adding 500 μl of RIPA lysis buffer (1% Nonidet P-40, 1% sodium deoxycholate, 0.1% SDS, […], 0.01 M sodium phosphate, pH 7.2, 2 mM EDTA, 50 mM sodium fluoride and 0.2 mM sodium vanadate), and the concentration is measured by using the Bradford method. 1
Extracted proteins is electrophoresed on 12% polyacrylamide gel, and they are transferred to the nitrocellulose membrane. The membrane blocked with 5% non-fat milk is reacted with the primary antibodies (caspase-3, p53, and Chk1), washed, and reacted with the secondary HRP-conjugated antibody. The intensity of proteins is analyzed by using the ECL kit.

Data set [3] deals with peripheral blood mononuclear cells (PBMC). Nature of the data set: MTT assay, cytotoxicity in peripheral blood mononuclear cells. In kind it is cell-based, human. The following applies: up to 100 μM, 24 hours, FIG. 3. The method, then:
(§3) The effects of the composition of the present invention on the cytotoxicity in immune cells (T cells, B cells, macrophages, monocytes, etc.) obtained from human blood were examined. The blood was obtained from healthy volunteers and PBMC from the blood by mechanical aggregation method. And mononuclear cells containing T cells, B cells, macrophages and monocytes were isolated from single cells by density gradient centrifugation method using Ficoll Hypaque. Briefly, single cells were treated with PBS and overlayed on Ficoll Hypaque and centrifuged at 1500 rpm for 30 min. After centrifugation, the cells around the boundary of the Ficoll-Hapaque were collected and washed three times with PBS. Each 2×10^5 PBMC obtained from different volunteers was mixed with each other and cultured for 5 days on the 96-well plate. And RPMI with 10% of serum was used as a medium. The isolated cells were cultured for 24 hours in the presence of 1, 10, 50 and 100 μM of NAPS, TAPS, and PS to examine the effect of cytotoxicity, i.e. the degree of proliferation of the cells. C2-ceramide was used as control.

Data set [4] has as its system HaCaT cells human keratinocyte cell line. The experiment in a line: MTT assay, combined administration with Vit D3 or calcipotriol. In kind it is cell-based. The following applies: 24 hours; for Cell viability: HaCaT, in %. The method, then:
In order to study the synergistic effect in the cytotoxicity when the compositions of the present invention are administered in combination with Vit D3 or calcipotriol, the cell viability is analyzed by MTT assay method in HaCaT cells human keratinocyte cell line.
To HaCaT cells, 1 μM of Vit D3 or calcipotriol, or 10 μM each of NAPS and TAPS, is administered singly or in combination with each other, and they are cultured for 24 hours. And the effects of these drugs on the cytotoxicity according to the single or combined administration are observed by MTT assay. C2-ceramide is used for comparison.

A further data set has as its system Th1 cells activation. The experiment in a line: Mixed leukocyte reaction (MLR), Th1 cells activation by TNBSO3, MTT assay. In kind it is cell-based, mice. The following applies: MLR with TNBSO3-conjugated stimulator cells, FIG. 4. The method, then: Whether the composition of the present invention has a suppressive effect on the Th1 cells activation which isolate […], IL-12, etc. by reacting with TNBSO3 […] was examined.
The mononuclear cells obtained from spleen of mice as described the above 4 were used for responder cells, and TNBSO3-conjugated cells were used for stimulator cells. The stimulator cells were obtained as follows:
The mononuclear cells were adjusted to be 2×10^7 cells/ml in PBS and the same volume of 20 mM TNBSO3 was added and incubated at 37° C. for 10 min in the dark state. After incubation, the cells wrer washed three times with PBS.
(§4) Each 2×10^5 responder cells and stimulator cells were mixed with each other and cultured for 5 days on the 96-well plate. And RPMI with 10% of serum was used as a medium.
(§5) The above cells were cultured for 24 hours in the presence of 1, 10, 50 and 100 μM of NAPS, TAPS, and PS to examine the proliferation of the cells.
(§6) C2-ceramide was used as control.

For data set [5], the system named is immune cells (T cells, B cells, macrophages, monocytes) from spleen of mice. Nature of the data set: MTT assay, cytotoxicity in immune cells separated from spleen of mice. In kind it is cell-based. As for the experimental part:
as §3, with “effect” for “effects”, “etc.) was examined. The spleen was removed from normal mice (BDF) and single cells were” for “etc.)”, “from” for “from human blood were examined. The blood was obtained from healthy volunteers and PBMC from”, “spleen” for “blood”, “PBS.” for “PBS. Each 2×10^5 PBMC obtained from different volunteers was mixed with each other and cultured for 5 days on the 96-well plate. And RPMI with 10% of serum was used as a medium.”, “control. The medium used in this experiment was RPMI 1640 suplemented with 10% of FBS and 100 μg/ml of penicillin and streptomycin.” for “control.”

The test system of data set [6] is Th1 cells activation against allogenic cells (PBMC). Nature of the data set: Reactions among allogenic cells, Th1 cells activation, MTT assay. It is filed as cell-based, human. The following applies: 50 μM, FIG. 5.
Text: Whether the composition of the present invention has a suppressive effect on the Th1 cells activation by allogenic cells in immune reation was examined.
PBMC obtained from different volunteers as described in the above 5 were used for responder cells and stimulator cells respectively. PBMC for stimulator cells were used after X-ray irradiation (3000 rad) to inhibit the proliferation of stimulator cells.
as §4, §5, §6

Data set [7] concerns A431 cells, human skin cancer cell line. Nature of the data set: MTT assay, cytotoxicity in human skin cancer cell line. It is filed as cell-based. The method, then:
as §1, §2
In order to study the effects of the compositions of the present invention on the cytotoxicity in A431 cells, human skin cancer cell line, the MTT assay is used. The method of cell culture and MTT assay are the same as those in the above method. C2-ceramide is used for comparison.

Another data set has as its system HaCaT cells. Nature of the data set: MTT assay, combined treatment with UVB irradiation. It is filed as cell-based, human. Also on record: Cell viability: unit not given here. The following applies: HaCaT. The method, then:
In order to study the synergistic effect in the cytotoxicity by the cotreatment with administration of the compositions of the present invention and with UVB irradiation, the cell viability is analyzed by MTT assay method in HaCaT cells. On a 100-mm dish, 1×10^6 HaCaT cells are seeded and cultured in DMEM containing 10% fetal bovine serum, 100 units/ml penicillin, and 100 μg/ml streptomycin for 48 hours. They are treated with trypsin, and 1-2×10^4 cells per well are seeded on a 96-well plate again by using a serum-free medium, which is removed after about 3 hours. HaCaT cells are washed with PBS three times, and 3.5 ml of PBS per plate is added. It is then irradiated with 200 J/m^2 of UVB. After irradiation, the medium is replaced with a DMEM medium. Then it is treated with the phytosphingosine derivatives of the present invention, and cultured for 24 hours. After 2 mg/ml of the MTT reagent is added, it is cultured for 4 hours. The medium is removed completely, the cells are suspended in DMSO, and O.D. is measured at 540 nm.

With `CCCCCCCCCCCCC/C=C/[C@@H](O)[C@H](CO)NC(C)=O` [C2-ceramide, reference compound], the Cell viability in data set [1] (3.5 µM) worked out at 90 ± 11.6; in [1] (7 µM), 60 ± 7.7; in data set [1] (15 µM), 61 ± 8.4; in data set [1] (30 µM) it was 34 ± 2.3; in data set [2] (1 µM), 97 ± 3.8; in data set [2] (3 µM) it was 98 ± 2.5. For the same compound, the Cell viability in data set [2] (10 µM) worked out at 75 ± 1.3; in data set [2] (30 µM), 33 ± 0.6; in data set [4] (10 μM combined with Vit D3 (1 μM)), 71 ± 9; in [4] (10 μM combined with calcipotriol (1 μM)), 70 ± 4; in data set [4] (10 μM singly), 78 ± 2; in data set [7] (3 µM) it was 113 ± 19.8. The Cell viability in [7] (10 µM) was 97 ± 14.7; in [7] (30 µM), 82 ± 1.4; in data set [7] (50 µM) it was 74 ± 12.8. Further, in the data set on caspase-3 (after treatment), the “time to maximum active caspase-3” value is at most 3 h. For the same compound, in the data set with caspase-3 (immunoblot), the “maximum increase of active caspase-3 (expression of induction)” value worked out at 2.5 folds. Besides, the “cytotoxicity to PBMC” value in data set [3] is given as “did not show the cytotoxicity”. Moreover, in the data set on Th1 cells activation, the “concentration showing a suppressive effect on Th1 cells activation” value is 50 µM. Moreover, the IC50 in [5] is around 75 µM. Also, the “suppressive effect on Th1 cells activation against allogenic cells” value in data set [6] is “almost no suppressive effect”.

In the case of `CCCCCCCCCCCCCCC(O)C(O)C(CO)NC(=O)CCCCC` (centres unmarked) [C6-PS, C6-phytosphingosine], the Cell viability in data set [2] (1 µM) was determined as 84 ± 16.8; in [2] (3 µM), 96 ± 7.2; in data set [2] (10 µM), 74 ± 10.1; in data set [2] (30 µM), 87 ± 1.3; in data set [7] (3 µM) it was 106 ± 9.7; in data set [7] (10 µM) it was 61 ± 8.1. In addition, the Cell viability worked out at 57 ± 10.4 in data set [7] (30 µM) and 44 ± 9.6 in [7] (50 µM).

On to `CCCCCCCCCCCCCC[C@@H](O)[C@@H](O)[C@@H](N)CO.Cl` [PS-HCl, phytosphingosine-HCl], for which the Cell viability was determined as 100 ± 4.1 in data set [2] (human, 24 h, 1 µM); 101 ± 2.2 in data set [2] (human, 24 h, 3 µM); 79 ± 7.0 in data set [2] (human, 24 h, 10 µM); 36 ± 6.8 in data set [2] (human, 24 h, 30 μM); 39 ± 4.5 with HaCaT cells (1 μM + UVB 200 J/m^2, 24 hours); 83 ± 7.9 in the data set with HaCaT cells (1 μM, no UVB, 24 hours). Also, the Cell viability with HaCaT cells (3 μM + UVB 200 J/m^2, 24 hours) worked out at 24 ± 2.0; in the data set on HaCaT cells (3 μM, no UVB, 24 hours), 78 ± 10.0; in the data set with HaCaT cells (5 μM + UVB 200 J/m^2, 24 hours), 25 ± 1.9; in the data set on HaCaT cells (5 μM, no UVB, 24 hours), 78 ± 6.7; in the data set on HaCaT cells (10 μM + UVB 200 J/m^2, 24 hours), 2 ± 0.5; in the data set on HaCaT cells (10 μM, no UVB, 24 hours), 75 ± 8.2. The Cell viability in data set [7] (human, 24 h, 3 µM) amounted to 105 ± 5.8; in data set [7] (human, 24 h, 10 µM), 109 ± 8.6; in [7] (human, 24 h, 30 μM), 7 ± 1.6; in data set [7] (human, 24 h, 50 μM), 2 ± 0.2. Moreover, the cytotoxicity in data set [7] (human, 24 h, 50 μM) was 95-98%.

As for `C=C1CC[C@H](O)C/C1=C/C=C1\CCC[C@]2(C)[C@@H]([C@H](C)CCCC(C)C)CC[C@@H]12` [Vit D3, vitamin D3, reference compound], in data set [4] (1 μM singly), the toxicity came to 19% and the Cell viability worked out at 81 ± 3.

For CLA-phytosphingosine [CLA-PS], the Cell viability in data set [2] (1 µM) came to 66 ± 7.8; in data set [2] (3 µM), 64 ± 9.9; in data set [2] (10 µM) it was 58 ± 0.4; in data set [2] (30 µM), 55 ± 9.1; in [7] (3 µM), 91 ± 11.0; in data set [7] (10 µM) it was 98 ± 12.9. In addition, the Cell viability in [7] (30 µM) was found to be 60 ± 6.2; in [7] (50 µM) it was 65 ± 5.5.

What is called IC50 is the midpoint of a concentration-inhibition curve.
